How the values were obtained:
[1] = test system: ORYSAT (Rice, Tebonnet); experiment: Postemergence herbicidal evaluation; type: in vivo, Oryza sativa, (L.) Tebonnet; details: postemergence
Method in brief: (§1)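 Rate range approx. 0.0156–0.500 kg/ha. Foliar application at 40 psi to ~2-week seedlings; surfactant 0.5% TWEEN 20 in 50/50 acetone/water. Evaluation 4–5 wk post-treatment by 0–9 visual injury score, means of replicate tests.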

[2] = test system: GLXMAW (Soybean, Williams); experiment: Postemergence herbicidal evaluation; type: in vivo, Glycine max, (L.) Merr. cv Williams; details: postemergence
Method in brief: as §1

[3] = test system: MOOVA (Monochoria); experiment: Preemergence weed control under flooded paddy conditions; type: in vivo, Monochoria vaginalis; details: rated 3-4 weeks after treatment
Method in brief: (§2)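 Silt loam, seeds in top 0.5 cm; flood held 1.5-3 cm; test cpd as acetone/water 50/50 into flood water, ~0.0313-0.500 kg/ha a.i.; greenhouse 3-4 wk; visual 0-9 score vs control.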

[4] = test system: SETVI (Foxtail, Green); experiment: Preemergence herbicidal evaluation; type: in vivo, Setaria viridis; details: preemergence, rated 4-5 weeks after treatment, 0-9 scale
Method in brief: (§3)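 Seeds were mixed with potting soil and planted on about one inch of soil, then sprayed with test compound in aqueous acetone at about 0.0156 to 0.500 kg per hectare. Plants grew under standard greenhouse care and were visually rated 0-9 against untreated controls 4-5 weeks post-treatment.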

[5] = test system: ECHCG (Barnyardgrass); experiment: Postemergence herbicidal evaluation; type: in vivo, Echinochloa crus-galli; details: postemergence
Method in brief: as §1

[6] = test system: SAGPY (Arrowhead (Pygmaea)); experiment: Preemergence weed control under flooded paddy conditions; type: in vivo, Sagittaria pygmaea; details: rated 3-4 weeks after treatment
Method in brief: as §2

[7] = test system: AMBEL (Ragweed, Common); experiment: Postemergence herbicidal evaluation; type: in vivo, Ambrosia artemisifolia; details: postemergence
Method in brief: as §1

[8] = test system: CYPIR (Rice Flatsedge); experiment: Postemergence weed control under flooded paddy conditions; type: in vivo, Cyperus iria; details: postemergence weeds, rated 3 to 4 weeks after treatment
Method in brief: (§4)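 With weeds 3 to 5 cm tall and rice at the 1.5 to 2.5 leaf stage, containers were flooded and water held 1.5 to 3 cm above soil. Compounds in 50/50 v/v aqueous/acetone went into the flood water at about 0.0313 to 0.500 kg/ha a.i. Effects were visually rated 0–9 against controls after three to four weeks in the greenhouse.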

[9] = test system: ABUTH (Velvetleaf); experiment: Postemergence herbicidal evaluation; type: in vivo, Abutilon theophrasti; details: postemergence
Method in brief: as §1

[10] = test system: SETVI (Foxtail, Green); experiment: Postemergence herbicidal evaluation; type: in vivo, Setaria viridis; details: postemergence
Method in brief: as §1

[11] = test system: CASOB (Sicklepod); experiment: Preemergence herbicidal evaluation; type: in vivo, Cassia obtusifolia; details: preemergence, rated 4-5 weeks after treatment, 0-9 scale
Method in brief: as §3

[12] = test system: SAGPY (Arrowhead (Pygmaea)); experiment: Postemergence weed control under flooded paddy conditions; type: in vivo, Sagittaria pygmaea; details: postemergence weeds, rated 3 to 4 weeks after treatment
Method in brief: as §4

[13] = test system: TRZAWR (Wheat, Winter, cv Riband); experiment: Postemergence herbicidal evaluation; type: in vivo, Triticum aestivum; details: postemergence
Method in brief: as §1

[14] = test system: ABUTH (Velvetleaf); experiment: Preemergence herbicidal evaluation; type: in vivo, Abutilon theophrasti; details: preemergence, rated 4-5 weeks after treatment, 0-9 scale
Method in brief: as §3

SMILES: CCOC(=O)CN1C(=O)C(CC(=O)NS(=O)(=O)c2ccccc2)SC1=Nc1cc(-n2c(=O)cc(C(F)(F)F)n(C)c2=O)c(F)cc1Cl (centres unmarked) [Compound 100, Ethyl 2-{{2-chloro-5-[3,6-dihydro-3-methyl-2,6-dioxo-4-(trifluoromethyl)-1(2H)-pyrimidinyl]-4-fluorophenyl}imino}-4-oxo-5-{[(phenylsulfonyl)-carbamoyl]methyl]-3-thiazolidineacetate]
- herbicidal rating ORYSAT ([1]; rate 0.0156 kg/ha): 3.0
- herbicidal rating ORYSAT ([1]; rate 0.0313 kg/ha): 3.5
- herbicidal rating ORYSAT ([1]; rate 0.0625 kg/ha): 3.5
- herbicidal rating ORYSAT ([1]; rate 0.1250 kg/ha): 3.5
- herbicidal rating GLXMAW ([2]; rate 0.0156 kg/ha): 5.5
- herbicidal rating GLXMAW ([2]; rate 0.0313 kg/ha): 6.0
- herbicidal rating GLXMAW ([2]; rate 0.0625 kg/ha): 6.5
- herbicidal rating GLXMAW ([2]; rate 0.1250 kg/ha): 7.0
- MOOVA herbicidal effect rating ([3]; 0.0313 kg/ha): 9.0
- MOOVA herbicidal effect rating ([3]; 0.0625 kg/ha): 9.0
- MOOVA herbicidal effect rating ([3]; 0.1250 kg/ha): 9.0
- MOOVA herbicidal effect rating ([3]; 0.2500 kg/ha): 9.0
- MOOVA herbicidal effect rating ([3]; 0.5000 kg/ha): 9.0
- SETVI rating ([4]; 0.0313 kg/ha): 0.0
- SETVI rating ([4]; 0.0625 kg/ha): 1.0
- SETVI rating ([4]; 0.1250 kg/ha): 0.0
- SETVI rating ([4]; 0.2500 kg/ha): 1.0
- SETVI rating ([4]; 0.5000 kg/ha): 1.0
- herbicidal rating ECHCG ([5]; rate 0.0156 kg/ha): 1.0
- herbicidal rating ECHCG ([5]; rate 0.0313 kg/ha): 3.0
- herbicidal rating ECHCG ([5]; rate 0.0625 kg/ha): 4.0
- herbicidal rating ECHCG ([5]; rate 0.1250 kg/ha): 7.0
- SAGPY herbicidal effect rating ([6]; 0.0313 kg/ha): 0.0
- SAGPY herbicidal effect rating ([6]; 0.0625 kg/ha): 0.0
- SAGPY herbicidal effect rating ([6]; 0.1250 kg/ha): 0.0
- SAGPY herbicidal effect rating ([6]; 0.2500 kg/ha): 4.0
- SAGPY herbicidal effect rating ([6]; 0.5000 kg/ha): 6.0
- herbicidal rating AMBEL ([7]; rate 0.0156 kg/ha): 9.0
- herbicidal rating AMBEL ([7]; rate 0.0313 kg/ha): 9.0
- herbicidal rating AMBEL ([7]; rate 0.0625 kg/ha): 9.0
- herbicidal rating AMBEL ([7]; rate 0.1250 kg/ha): 7.0
- Herbicidal rating CYPIR ([8]; Rate 0.0313 kg/ha): 0.0
- Herbicidal rating CYPIR ([8]; Rate 0.0625 kg/ha): 0.0
- Herbicidal rating CYPIR ([8]; Rate 0.1250 kg/ha): 0.0
- Herbicidal rating CYPIR ([8]; Rate 0.2500 kg/ha): 4.0
- Herbicidal rating CYPIR ([8]; Rate 0.5000 kg/ha): 9.0
- herbicidal rating ABUTH ([9]; rate 0.0156 kg/ha): 9.0
- herbicidal rating ABUTH ([9]; rate 0.0313 kg/ha): 9.0
- herbicidal rating ABUTH ([9]; rate 0.0625 kg/ha): 9.0
- herbicidal rating ABUTH ([9]; rate 0.1250 kg/ha): 9.0
- herbicidal rating SETVI ([10]; rate 0.0156 kg/ha): 2.0
- herbicidal rating SETVI ([10]; rate 0.0313 kg/ha): 9.0
- herbicidal rating SETVI ([10]; rate 0.0625 kg/ha): 6.0
- herbicidal rating SETVI ([10]; rate 0.1250 kg/ha): 7.0
- CASOB rating ([11]; 0.0313 kg/ha): 0.0
- CASOB rating ([11]; 0.0625 kg/ha): 0.0
- CASOB rating ([11]; 0.1250 kg/ha): 0.0
- CASOB rating ([11]; 0.2500 kg/ha): 0.0
- CASOB rating ([11]; 0.5000 kg/ha): 8.0
- Herbicidal rating SAGPY ([12]; Rate 0.0313 kg/ha): 0.0
- Herbicidal rating SAGPY ([12]; Rate 0.0625 kg/ha): 0.0
- Herbicidal rating SAGPY ([12]; Rate 0.1250 kg/ha): 0.0
- Herbicidal rating SAGPY ([12]; Rate 0.2500 kg/ha): 4.0
- Herbicidal rating SAGPY ([12]; Rate 0.5000 kg/ha): 6.0
- herbicidal rating TRZAWR ([13]; rate 0.0156 kg/ha): 3.0
- herbicidal rating TRZAWR ([13]; rate 0.0313 kg/ha): 4.0
- herbicidal rating TRZAWR ([13]; rate 0.0625 kg/ha): 3.5
- herbicidal rating TRZAWR ([13]; rate 0.1250 kg/ha): 4.0
- ABUTH rating ([14]; 0.0313 kg/ha): 0.0
- ABUTH rating ([14]; 0.0625 kg/ha): 0.0
- ABUTH rating ([14]; 0.1250 kg/ha): 2.0
- ABUTH rating ([14]; 0.2500 kg/ha): 9.0
- ABUTH rating ([14]; 0.5000 kg/ha): 9.0

SMILES: CCOC(=O)CN1C(=O)C(CC(=O)NS(=O)(=O)CC)SC1=Nc1cc(-n2c(=O)cc(C(F)(F)F)n(C)c2=O)c(F)cc1Cl (centres unmarked) [Compound 103, Ethyl 2-{{2-chloro-5-[3,6-dihydro-3-methyl-2,6-dioxo-4-(trifluoromethyl)-1(2H)-pyrimidinyl]-4-fluorophenyl}imino}-5-{[(ethylsulfonyl)carbamoyl]-methyl}-4-oxo-3-thiazolidineacetate]
- herbicidal rating ORYSAT ([1]; rate 0.0156 kg/ha): 1.5
- herbicidal rating ORYSAT ([1]; rate 0.0313 kg/ha): 2.0
- herbicidal rating ORYSAT ([1]; rate 0.0625 kg/ha): 2.5
- herbicidal rating ORYSAT ([1]; rate 0.1250 kg/ha): 3.5
- herbicidal rating GLXMAW ([2]; rate 0.0156 kg/ha): 8.0
- herbicidal rating GLXMAW ([2]; rate 0.0313 kg/ha): 7.0
- herbicidal rating GLXMAW ([2]; rate 0.0625 kg/ha): 9.0
- herbicidal rating GLXMAW ([2]; rate 0.1250 kg/ha): 9.0
- MOOVA herbicidal effect rating ([3]; 0.0313 kg/ha): 5.0
- MOOVA herbicidal effect rating ([3]; 0.0625 kg/ha): 7.0
- MOOVA herbicidal effect rating ([3]; 0.1250 kg/ha): 9.0
- MOOVA herbicidal effect rating ([3]; 0.2500 kg/ha): 9.0
- SETVI rating ([4]; 0.0313 kg/ha): 0.0
- SETVI rating ([4]; 0.0625 kg/ha): 0.0
- SETVI rating ([4]; 0.1250 kg/ha): 3.0
- SETVI rating ([4]; 0.2500 kg/ha): 3.0
- SETVI rating ([4]; 0.5000 kg/ha): 9.0
- herbicidal rating ECHCG ([5]; rate 0.0156 kg/ha): 3.0
- herbicidal rating ECHCG ([5]; rate 0.0313 kg/ha): 9.0
- herbicidal rating ECHCG ([5]; rate 0.0625 kg/ha): 9.0
- herbicidal rating ECHCG ([5]; rate 0.1250 kg/ha): 9.0
- SAGPY herbicidal effect rating ([6]; 0.0313 kg/ha): 7.0
- SAGPY herbicidal effect rating ([6]; 0.0625 kg/ha): 9.0
- SAGPY herbicidal effect rating ([6]; 0.1250 kg/ha): 9.0
- SAGPY herbicidal effect rating ([6]; 0.2500 kg/ha): 9.0
- herbicidal rating AMBEL ([7]; rate 0.0156 kg/ha): 9.0
- herbicidal rating AMBEL ([7]; rate 0.0313 kg/ha): 9.0
- herbicidal rating AMBEL ([7]; rate 0.0625 kg/ha): 9.0
- herbicidal rating AMBEL ([7]; rate 0.1250 kg/ha): 9.0
- Herbicidal rating CYPIR ([8]; Rate 0.0313 kg/ha): 4.0
- Herbicidal rating CYPIR ([8]; Rate 0.0625 kg/ha): 6.0
- Herbicidal rating CYPIR ([8]; Rate 0.1250 kg/ha): 9.0
- Herbicidal rating CYPIR ([8]; Rate 0.2500 kg/ha): 9.0
- herbicidal rating ABUTH ([9]; rate 0.0156 kg/ha): 9.0
- herbicidal rating ABUTH ([9]; rate 0.0313 kg/ha): 9.0
- herbicidal rating ABUTH ([9]; rate 0.0625 kg/ha): 9.0
- herbicidal rating ABUTH ([9]; rate 0.1250 kg/ha): 9.0
- herbicidal rating SETVI ([10]; rate 0.0156 kg/ha): 4.0
- herbicidal rating SETVI ([10]; rate 0.0313 kg/ha): 5.0
- herbicidal rating SETVI ([10]; rate 0.0625 kg/ha): 9.0
- herbicidal rating SETVI ([10]; rate 0.1250 kg/ha): 9.0
- CASOB rating ([11]; 0.0313 kg/ha): 0.0
- CASOB rating ([11]; 0.0625 kg/ha): 0.0
- CASOB rating ([11]; 0.1250 kg/ha): 0.0
- CASOB rating ([11]; 0.2500 kg/ha): 3.0
- CASOB rating ([11]; 0.5000 kg/ha): 3.0
- Herbicidal rating SAGPY ([12]; Rate 0.0313 kg/ha): 7.0
- Herbicidal rating SAGPY ([12]; Rate 0.0625 kg/ha): 9.0
- Herbicidal rating SAGPY ([12]; Rate 0.1250 kg/ha): 9.0
- Herbicidal rating SAGPY ([12]; Rate 0.2500 kg/ha): 9.0
- herbicidal rating TRZAWR ([13]; rate 0.0156 kg/ha): 3.5
- herbicidal rating TRZAWR ([13]; rate 0.0313 kg/ha): 6.0
- herbicidal rating TRZAWR ([13]; rate 0.0625 kg/ha): 7.5
- herbicidal rating TRZAWR ([13]; rate 0.1250 kg/ha): 7.5
- ABUTH rating ([14]; 0.0313 kg/ha): 9.0
- ABUTH rating ([14]; 0.0625 kg/ha): 9.0
- ABUTH rating ([14]; 0.1250 kg/ha): 9.0
- ABUTH rating ([14]; 0.2500 kg/ha): 9.0
- ABUTH rating ([14]; 0.5000 kg/ha): 9.0
